# Data taken from US8394829B2, “Bi-functional quinoline analogs” (Gilead Sciences, Inc., priority 2010, dated 2013).
# Experiments:
# [1] = target: T1, Human recombinant PDE4B2 (Homo sapiens, UniProt Q07343); assay: Inhibition of PDE4B4 enzyme activity (PDE Glo Assay); type: biochemical; conditions: human recombinant PDE4B2, 50 nM cAMP; read-out: PDE4 IC50
# T1 construct: purchased BPS Bioscience
# How it was run: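 Human recombinant PDE4B2 (0.12 nM) was pre-incubated with compound for 10 min at rt, then 50 nM cAMP was added for 1 hr. After IBMX stop and PKA detection, read-out was Kinase-Glo luminescence. IC50 came from a single-site nonlinear fit of RLU versus concentration.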
# [2] = test system: LPS-induced TNF-α release from human peripheral blood mononuclear cells (PBMC); assay: Inhibition of LPS-induced TNF-α release from human PBMC; type: cell-based; conditions: LPS 0.4 ng/mL, 6 h, presence or absence of ICI-118551 not given
# How it was run: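 Ficoll-purified primary PBMC, 100,000 cells/well, pre-incubated 30 min ± 10 μM ICI-118551 (± gives PDE4-only vs PDE4 plus beta-2 activity), then compound 1 h at 37 °C (0.1% DMSO). Stimulated with 0.4 ng/mL LPS for 6 h; supernatant TNF-α by bead cytokine assay; IC50 from single-site fit.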
# [3] = target: T2, human recombinant beta-2 adrenoreceptors (Homo sapiens, UniProt P07550); assay: Functional agonism of human recombinant beta-2 adrenoreceptors expressed in CHO cells (cAMP HTRF); type: cell-based; conditions: CHO cells expressing human beta-2 adrenoreceptors, cAMP elevation, 30 min
# T2 construct: expressed in transfected cells; host or cells: CHO cells
# How it was run: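 CHO cells expressing recombinant receptor incubated with compound for 30 min; intracellular cAMP rise over control read by HTRF. EC50 taken as concentration giving 50% of that compound's own maximal response, with full or partial agonism judged against isoproterenol maximum.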
# [4] = target: T2, human recombinant beta-2 adrenoreceptors; assay: Beta-2 adrenoceptor binding assay ([3H](−)CGP-12177 displacement); conditions: CHO cells expressing human beta-2 adrenoreceptors, [3H](−)CGP-12177 0.3 nM, 120 min
# How it was run: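 Displacement of [3H](−)CGP-12177 (0.3 nM) from human recombinant beta-2 receptors expressed in CHO cells, measured after 120 min incubation with test compound. Bound radioligand counted by scintillation; IC50 taken from concentration-response curves as 50% of each compound's maximal inhibition.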
# T2 sequence (P07550 whole entry): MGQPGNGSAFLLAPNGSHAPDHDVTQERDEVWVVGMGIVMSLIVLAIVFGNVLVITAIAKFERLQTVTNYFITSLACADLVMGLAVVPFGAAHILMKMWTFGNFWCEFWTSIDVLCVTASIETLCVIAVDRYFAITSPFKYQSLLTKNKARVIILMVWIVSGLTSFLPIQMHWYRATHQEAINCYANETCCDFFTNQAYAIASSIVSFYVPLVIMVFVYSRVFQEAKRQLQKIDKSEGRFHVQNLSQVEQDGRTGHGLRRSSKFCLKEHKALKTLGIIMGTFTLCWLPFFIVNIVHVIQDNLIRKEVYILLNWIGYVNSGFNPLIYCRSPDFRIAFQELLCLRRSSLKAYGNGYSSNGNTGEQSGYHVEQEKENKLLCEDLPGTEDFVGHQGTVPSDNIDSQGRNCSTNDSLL
# T1 sequence (Q07343 1-564 isoform Q07343-2): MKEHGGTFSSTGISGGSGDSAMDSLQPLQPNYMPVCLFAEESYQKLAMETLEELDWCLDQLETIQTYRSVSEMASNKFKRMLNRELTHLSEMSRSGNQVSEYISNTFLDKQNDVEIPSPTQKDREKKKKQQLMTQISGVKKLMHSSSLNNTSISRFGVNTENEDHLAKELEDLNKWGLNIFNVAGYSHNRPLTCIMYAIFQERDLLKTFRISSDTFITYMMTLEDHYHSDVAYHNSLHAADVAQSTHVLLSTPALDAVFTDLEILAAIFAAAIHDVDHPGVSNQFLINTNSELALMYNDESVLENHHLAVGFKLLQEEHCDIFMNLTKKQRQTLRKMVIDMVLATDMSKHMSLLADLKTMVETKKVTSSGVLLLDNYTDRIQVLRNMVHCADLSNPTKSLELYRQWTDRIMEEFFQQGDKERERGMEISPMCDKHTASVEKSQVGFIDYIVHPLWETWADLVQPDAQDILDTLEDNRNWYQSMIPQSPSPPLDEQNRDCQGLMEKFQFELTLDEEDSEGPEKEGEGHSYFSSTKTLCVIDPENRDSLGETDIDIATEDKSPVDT
IC50 [1],EC50 [3],IC50 [4],SMILES,EC50 [2]
< 100 nM,< 100 nM,< 100 nM,"COc1cccc(Nc2c(C(N)=O)cnc3c(C)cc(S(=O)(=O)c4cccc(C(=O)Nc5ccc(C#CCCCNC[C@H](O)c6ccc(O)c7c6OCC(=O)N7)cc5)c4)cc23)c1 [Example 32, (R)-6-((3-((4-(5-((2-hydroxy-2-(5-hydroxy-3-oxo-3,4-dihydro-2H-benzo[b][1,4]oxazin-8-yl)ethyl)amino)pent-1-yn-1-yl)phenyl)carbamoyl)phenyl)sulfonyl)-4-((3-methoxyphenyl)amino)-8-methylquinoline-3-carboxamide]",< 100 nM
< 100 nM,< 100 nM,< 100 nM,"COc1cccc(Nc2c(C(N)=O)cnc3c(C)cc(S(=O)(=O)c4cccc(C(=O)Nc5ccc(C#CCCCNC[C@H](O)c6ccc(O)c7[nH]c(=O)ccc67)cc5C)c4)cc23)c1 [Example 34, (R)-6-((3-((4-(5-((2-hydroxy-2-(8-hydroxy-2-oxo-1,2-dihydroquinolin-5-yl)ethyl)amino)pent-1-yn-1-yl)-2-methylphenyl)carbamoyl)phenyl)sulfonyl)-4-((3-methoxyphenyl)amino)-8-methylquinoline-3-carboxamide]",< 100 nM
< 100 nM,< 100 nM,< 100 nM,"COc1cccc(Nc2c(C(N)=O)cnc3c(C)cc(S(=O)(=O)c4cccc(C(=O)Nc5ccc(CCCCOCCCCCCNC[C@H](O)c6ccc(O)c7[nH]c(=O)ccc67)cc5)c4)cc23)c1 [Example 38, (R)-6-((3-((4-(4-((6-((2-hydroxy-2-(8-hydroxy-2-oxo-1,2-dihydroquinolin-5-yl)ethyl)amino)hexyl)oxy)butyl)phenyl)carbamoyl)phenyl)sulfonyl)-4-((3-methoxyphenyl)amino)-8-methylquinoline-3-carboxamide]",< 100 nM
< 100 nM,< 100 nM,< 100 nM,"COc1cccc(Nc2c(C(N)=O)cnc3c(C)cc(S(=O)(=O)c4cccc(C(=O)Nc5ccc(CCOCCCCCCNC[C@H](O)c6ccc(O)c7[nH]c(=O)ccc67)cc5)c4)cc23)c1 [Example 39, (R)-6-((3-((4-(2-((6-((2-hydroxy-2-(8-hydroxy-2-oxo-1,2-dihydroquinolin-5-yl)ethyl)amino)hexyl)oxy)ethyl)phenyl)carbamoyl)phenyl)sulfonyl)-4-((3-methoxyphenyl)amino)-8-methylquinoline-3-carboxamide]",< 100 nM
< 100 nM,< 100 nM,< 100 nM,"COc1cccc(Nc2c(C(N)=O)cnc3c(C)cc(S(=O)(=O)c4cccc(C(=O)NCCCCCCNC[C@H](O)c5ccc(O)c(NS(C)(=O)=O)c5)c4)cc23)c1 [Example 43, (R)-6-[[3-[[6-[[2-Hydroxy-2-[4-hydroxy-3-(methylsulfonamido)phenyl]ethyl]amino]hexyl]carbamoyl]phenyl]sulfonyl]-4-[(3-methoxyphenyl)amino]-8-methylquinoline-3-carboxamide]",< 100 nM

# Second part, the compound before the results:
SMILES,IC50 [1],EC50 [3],IC50 [4],EC50 [2]
"COc1cccc(Nc2c(C(N)=O)cnc3c(C)cc(S(=O)(=O)c4cccc(C(=O)N(C)CCCCCCNC[C@H](O)c5ccc(O)c6c5OCC(=O)N6)c4)cc23)c1 [Example 30, (R)-6-((3-((6-((2-hydroxy-2-(5-hydroxy-3-oxo-3,4-dihydro-2H-benzo[b][1,4]oxazin-8-yl)ethyl)amino)hexyl)(methyl)carbamoyl)phenyl)sulfonyl)-4-((3-methoxyphenyl)amino)-8-methylquinoline-3-carboxamide]",< 100 nM,< 100 nM,< 100 nM,< 100 nM
"COc1cccc(Nc2c(C(N)=O)cnc3c(C)cc(S(=O)(=O)c4cccc(C(=O)Nc5ccc(C#CCCCNC[C@H](O)c6ccc(O)c(NC=O)c6)cc5)c4)cc23)c1 [Example 31, (R)-6-[[3-[[4-[5-[[2-(3-Formamido-4-hydroxyphenyl)-2-hydroxyethyl]amino]pent-1-ynyl]phenyl]carbamoyl]phenyl]sulfonyl]-4-[(3-methoxyphenyl)amino]-8-methylquinoline-3-carboxamide]",< 100 nM,< 300 nM,< 300 nM,< 100 nM
"COc1cccc(Nc2c(C(N)=O)cnc3c(C)cc(S(=O)(=O)c4cccc(C(=O)N(C)c5ccc(C#CCCCNC[C@H](O)c6ccc(O)c7[nH]c(=O)ccc67)cc5)c4)cc23)c1 [Example 33, (R)-6-((3-((4-(5-((2-hydroxy-2-(8-hydroxy-2-oxo-1,2-dihydroquinolin-5-yl)ethyl)amino)pent-1-yn-1-yl)phenyl)(methyl)carbamoyl)phenyl)sulfonyl)-4-((3-methoxyphenyl)amino)-8-methylquinoline-3-carboxamide]",< 100 nM,< 100 nM,< 100 nM,< 100 nM
"COc1cccc(Nc2c(C(N)=O)cnc3c(C)cc(S(=O)(=O)c4cccc(C(=O)Nc5ccc(C6(CCCCNC[C@H](O)c7ccc(O)c8[nH]c(=O)ccc78)SCCS6)cc5)c4)cc23)c1 [Example 37, (R)-6-((3-((4-(2-(4-((2-hydroxy-2-(8-hydroxy-2-oxo-1,2-dihydroquinolin-5-yl)ethyl)amino)butyl)-1,3-dithiolan-2-yl)phenyl)carbamoyl)phenyl)sulfonyl)-4-((3-methoxyphenyl)amino)-8-methylquinoline-3-carboxamide]",< 100 nM,< 100 nM,< 100 nM,< 100 nM
"COc1cccc(Nc2c(C(N)=O)cnc3c(C)cc(S(=O)(=O)c4cccc(C(=O)NCCCCCCNC[C@H](O)c5ccc(O)c(CO)c5)c4)cc23)c1 [Example 41, (R)-6-[[3-[[6-[[2-Hydroxy-2-[4-hydroxy-3-(hydroxymethyl)phenyl]ethyl]amino]hexyl]carbamoyl]phenyl]sulfonyl]-4-[(3-methoxyphenyl)amino]-8-methylquinoline-3-carboxamide]",< 100 nM,< 100 nM,< 100 nM,< 100 nM
"COc1cccc(Nc2c(C(N)=O)cnc3c(C)cc(S(=O)(=O)c4cccc(C(=O)N(C)CCCCCCNC[C@H](O)c5ccc(O)c(CO)c5)c4)cc23)c1 [Example 44, (R)-6-[[3-[[6-[[2-Hydroxy-2-(4-hydroxy-3-(hydroxymethyl]phenyl]ethyl]amino)hexyl](methyl)carbamoyl]phenyl]sulfonyl]-4-[(3-methoxyphenyl)amino]-8-methylquinoline-3-carboxamide]",< 100 nM,> 300 nM,> 300 nM,< 100 nM
"COc1cccc(Nc2c(C(N)=O)cnc3c(C)cc(S(=O)(=O)CCCCCCCCCCCNC[C@H](O)c4ccc(O)c5[nH]c(=O)ccc45)cc23)c1 [Example 45, (R)-6-((11-((2-hydroxy-2-(8-hydroxy-2-oxo-1,2-dihydroquinolin-5-yl)ethyl)amino)undecyl)sulfonyl)-4-((3-methoxyphenyl)amino)-8-methylquinoline-3-carboxamide]",< 100 nM,< 100 nM,< 100 nM,< 100 nM
"COc1cccc(Nc2c(C(N)=O)cnc3c(C)cc(S(=O)(=O)CCCCCCCCCCCNC[C@H](O)c4cc(O)cc5c4OCC(=O)N5)cc23)c1 [Example 46, (R)-6-((11-((2-hydroxy-2-(6-hydroxy-3-oxo-3,4-dihydro-2H-benzo[b][1,4]oxazin-8-yl)ethyl)amino)undecyl)sulfonyl)-4-((3-methoxyphenyl)amino)-8-methylquinoline-3-carboxamide]",< 100 nM,< 300 nM,< 100 nM,< 100 nM
"COc1cccc(Nc2c(C(N)=O)cnc3c(C)cc(S(=O)(=O)c4cccc(-c5ccc(CNC[C@H](O)c6ccc(O)c7[nH]c(=O)ccc67)cc5)c4)cc23)c1 [Example 47, (R)-6-((4′-(((2-hydroxy-2-(8-hydroxy-2-oxo-1,2-dihydroquinolin-5-yl)ethyl)amino)methyl)-[1,1′-biphenyl]-3-yl)sulfonyl)-4-((3-methoxyphenyl)amino)-8-methylquinoline-3-carboxamide]",< 100 nM,> 300 nM,> 300 nM,< 100 nM
"COc1cccc(Nc2c(C(N)=O)cnc3c(C)cc(S(=O)(=O)c4ccc(-c5ccc(CNC[C@H](O)c6ccc(O)c7[nH]c(=O)ccc67)cc5)cc4)cc23)c1 [Example 48, (R)-6-((4′-(((2-hydroxy-2-(8-hydroxy-2-oxo-1,2-dihydroquinolin-5-yl)ethyl)amino)methyl)-[1,1′-biphenyl]-4-yl)sulfonyl)-4-((3-methoxyphenyl)amino)-8-methylquinoline-3-carboxamide]",< 100 nM,< 100 nM,< 100 nM,< 100 nM
